Assay: gradient 5% acetonitrile 3 min, to 50% in 2 min, to 85% in 15 min, held 3 min, 100 µL/min
Conditions: column: Zorbax Extend-C18 2.1 x 50 mm; eluents: water / acetonitrile, 0.1% formic acid
Outline: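 Pure standards were analyzed in mixtures of ~100 molecules using HPLC coupled to a quadrupole time-of-flight mass spectrometer, in both positive and negative ionization mode. Separation used a Zorbax Extend-C18 column (2.1 × 50 mm, 1.8 μm) at 100 μL/min, with water and acetonitrile each containing 0.1% formic acid. Dead and dwell volumes were 40 μL and 900 μL, and data were collected over 3 months. Retention time was read from computationally picked adduct peaks, each inspected manually.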

RP-LC retention time | SMILES
957 s | CCOC(=O)c1cc(S(=O)(=O)N2CCCC2C(=O)Nc2ccc(C)cc2C)cn1C (centres undefined)
670 s | CC(C)(C)NC(=O)c1csc(-c2ccc(N3CCCC3)nc2)n1
802 s | CCc1cc(=O)n(CC(=O)Nc2cc(F)cc(F)c2)c(N2CCOCC2)n1
908 s | CN(C(=O)c1cc2c(=O)oc3ccccc3c2n1C)C1CCCCC1
576 s | Cc1nn(CC(=O)NCCN2CCN(Cc3ccccc3)CC2)c(=O)c2noc(C)c12
913 s | COC(=O)C1=CN(c2cccc(Br)c2)c2ccc(F)cc2S1(=O)=O
1070 s | O=S(=O)(c1ccc(Cl)c(-c2nnc(-c3ccccc3)o2)c1)N1CCSCC1
589 s | CCOC(=O)N1CCN(CC(O)COc2ccc(Cl)cc2Cl)CC1 (centres undefined)
855 s | Cc1cc(C)c(C(=O)N2CCCC(C(=O)NCc3cccc(Br)c3)C2)[nH]1 (centres undefined)
772 s | CC(Oc1ccc(=O)n(-c2ccc(F)cc2)n1)C(=O)Nc1ccccc1F (centres undefined)
1000 s | COc1ccccc1NC(=O)CN1c2ccc(F)cc2-c2ccccc2S1(=O)=O
871 s | COc1cccc(-c2noc(C3CC(=O)N(c4ccc5c(c4)OCO5)C3)n2)c1OC (centres undefined)
926 s | Cc1ccc(NC(=O)Cn2cccc2-c2nnc(C3CCC3)o2)cc1
912 s | CC(=O)N1c2ccc(S(=O)(=O)N3CCCCC3)cc2CC1C(=O)Nc1cc(C)ccc1C (centres undefined)
809 s | Cc1ccc(Cl)cc1NC(=O)C(C)n1cnc2nc3c(cc2c1=O)CCCC3 (centres undefined)
706 s | CCn1c(C)c(CCC(=O)NC(C)C)c(=O)n2nc(-c3ccccc3)nc12
1020 s | O=c1n(Cc2ccc(Cl)cc2)nc2ccc(S(=O)(=O)N3CCCCCC3)cn12
893 s | COc1ccc2c(c1)C1CC(C)(NC(=O)C1S(=O)(=O)c1ccc(C)cc1)O2 (centres undefined)
699 s | Cc1cc(C(=O)NCC2CCN(C(=O)NC(C)(C)C)CC2)c(C)o1
875 s | CN(C)c1ccc(N2C=C(C(=O)N3CCOCC3)S(=O)(=O)c3ccc(Cl)cc32)cc1
912 s | O=C(Cn1c(=O)oc2ccccc21)Nc1nc(-c2ccccc2)cs1
639 s | Cc1cc2oc(C(=O)NCC(c3ccccc3)N(C)C)cc(=O)c2cc1C (centres undefined)

RP-LC retention time | SMILES
672 s | Cn1c(CCc2cccc(NC(=O)C3CCN(S(=O)(=O)N4CCCC4)CC3)c2)nc2ccccc21
654 s | O=C(NCc1ccco1)C1CCCN(c2ccc(-c3ccccc3)nn2)C1 (centres undefined)
721 s | CCN1C(=O)c2cccnc2Sc2cc(CNC(=O)c3cccc4[nH]ccc34)ccc21
832 s | COc1cccc(C2OC(c3cccc(Cn4cccn4)c3)=NN2C(C)=O)c1OC(C)=O (centres undefined)
724 s | Cc1cccc(-c2ncccc2CNS(=O)(=O)c2ccc(F)cc2)c1
712 s | COc1ccccc1NC(=O)Nc1nc(CC(=O)NCc2ccco2)cs1
789 s | CCOc1ccc(S(=O)(=O)N2CCC(C(=O)NCCCOC)CC2)cc1C
585 s | CN1C(=O)c2cc(C(=O)NCCCN3CCCC3)nn2CC1(C)C(=O)NCc1ccc(F)cc1 (centres undefined)
1040 s | O=C(Cn1cnc2c(sc3nc(-c4ccccc4)ccc32)c1=O)Nc1ccc(F)c(F)c1
650 s | CC(C)c1noc(C2Cc3ccccc3N2C(=O)NC2CCCC2)n1 (centres undefined)
884 s | Cc1cc(NC(=O)Cn2nc(N3CCOCC3)c3ccccc3c2=O)ccc1Br
963 s | N#Cc1ccc2ccn(CC(=O)N3CCCc4ccccc43)c2c1
748 s | Cc1ccc(C)c(C(=O)N2CCCC(c3nc(CNC(=O)C4CCC4)cs3)C2)c1 (centres undefined)
707 s | COc1ccc2c(Oc3ccc(NC(=O)c4c(C)n(CC(C)(C)O)n(-c5ccccc5)c4=O)nc3)ccnc2c1
781 s | COCCOCc1nc(C2CCCN2S(=O)(=O)c2ccccc2)no1 (centres undefined)
1250 s | CCOc1ccc(Cc2nc(-c3ccc4oc(C)nc4c3)no2)cc1
581 s | O=C(c1ccsc1)N1CCC2(CCC2N2CCOCC2)CC1 (centres undefined)
663 s | Cn1c(=O)sc2cc(S(=O)(=O)N3CCC(C(=O)N4CCOCC4)CC3)ccc21
619 s | CC1OC2(CS1)CN1CCC2CC1 (centres undefined)
786 s | COc1ccc(S(=O)(=O)N2CCc3nn(CC4CC4)c(=O)n3CC2)cc1Cl
552 s | NC(=O)C1CCN(c2ccc3cccc(OCC(=O)NCc4ccco4)c3n2)CC1
568 s | Nc1ccc(-c2nc3ccc(-c4nc5ccc(N)cc5[nH]4)cc3[nH]2)cc1

RP-LC retention time | SMILES
1010 s | O=C(CSc1nc2ccccc2s1)OCc1cc(-c2ccco2)on1
684 s | CCN(CC)CCNc1ncnc2c1cnn2-c1cccc(Cl)c1
986 s | CC(NC(=O)C1CCCN(c2nccnc2Oc2ccccc2)C1)c1ccccc1 (centres undefined)
706 s | O=c1n(CC2CC2)nc2n1CCC(NS(=O)(=O)c1ccccc1)CC2 (centres undefined)
1190 s | O=c1c2cc(-c3ccc(Cl)cc3)nn2ccn1Cc1nc(-c2cccc(F)c2)no1
948 s | O=C(NCc1ccc(S(=O)(=O)N2CCCC2)s1)c1cccc(-c2nnc(-c3ccccc3)o2)c1
1150 s | CCn1c(C(=O)NCCCOC(C)C)cc2c(-c3cccs3)nn(-c3ccccc3)c21
998 s | Cc1ccc(CC(=O)Nc2ccc(-c3nc(Cn4nc(C)c(C)c4C)c(C)o3)cc2)cc1
550 s | Cn1c(=O)n(CCCC#N)c2cncnc21
656 s | CCOC(=O)C1=C(CN2CCN(C3CCCCC3)CC2)NC(=O)NC1c1ccc(OC)cc1 (centres undefined)
884 s | CCc1noc(NC(C)=O)c1-c1ccc(C)c(S(=O)(=O)Nc2cc(C)ccc2OC)c1
730 s | O=C(NCc1cccc(Br)c1)c1cn2ccccc2n1
917 s | Cc1ccc(Sc2nccnc2N2CCCC(C(=O)NCC3CCCO3)C2)cc1 (centres undefined)
553 s | COc1ccc2c(c1)c(CN1CCC(C(=O)NCCN3CCOCC3)CC1)cn2C
575 s | Cc1c(CC(=O)NCc2cccnc2)c(=O)n2nc(-c3ccccc3)nc2n1C
592 s | O=C(c1ccc(F)c(Cl)c1)N1CCc2nc[nH]c2C1
1080 s | Cc1cc(C(=O)N(CC2CCCO2)c2nc3c(F)cc(F)cc3s2)on1 (centres undefined)
685 s | CCN(CC)C(=O)c1cc(=O)n(CC(=O)NC2CCCC2)c2ccccc12
597 s | O=C(NC1CCCCCC1)c1ccc2c(c1)ncn2CCN1CCCC1
619 s | CN1C(=O)c2cccnc2Sc2cc(NC(=O)C3CCOC3)ccc21 (centres undefined)
1160 s | Cc1cc(F)ccc1NS(=O)(=O)c1cc(-c2cc(C(F)(F)F)on2)sc1C
886 s | CCOc1ccccc1C(=O)N1CCCC1c1nc(-c2ccccc2OC)no1 (centres undefined)

RP-LC retention time | SMILES
581 s | COc1ccc(CC(=O)NCCc2nc3cccnc3n2C)cc1
946 s | CCCCOc1ccc(-c2cc3c4nnc(CCC(=O)NCc5cccc(OC)c5)n4ccn3n2)cc1
859 s | Cc1ccc(NC(=O)C2CCCN(S(=O)(=O)c3c[nH]c(C(=O)N4CCCC4)c3)C2)cc1F (centres undefined)
898 s | CCN(CC)C(=O)N1CCO[C@@H](COc2ccccn2)[C@@H]1c1ccccc1
1030 s | COc1ccc(-c2c(C(=O)Nc3cc(OC)ccc3OC)nc3ccccn23)cc1
710 s | Cc1cccc(N2CCN(c3cc(C(=O)O)c4cc(NC(=O)CC(C)C)ccc4n3)CC2)c1
730 s | C=CCn1c(C)c(CC(=O)NCCC)c(=O)n2nc(-c3ccccc3)nc12
610 s | O=C(NCCN1CCOC(c2ccccc2)C1)c1ccc(Cl)c(Cl)c1 (centres undefined)
735 s | Cc1ccc(-c2noc(-c3nnc(NCCCN4CCOCC4)c4ccccc34)n2)cc1
860 s | CCc1ccc(CNC(=O)c2cc3n(n2)CC(C)(C(=O)NCCC(C)C)N(C)C3=O)cc1 (centres undefined)
1080 s | CCOc1ccc(N2CC(c3nc(-c4ccc(Cl)cc4)no3)CC2=O)cc1 (centres undefined)
768 s | CCCN(C)S(=O)(=O)c1cc(-c2nnc(C)o2)co1
671 s | CCOC(=O)CC(=O)CSc1ccc2nnc(-c3cccs3)n2n1
850 s | Cc1cccc(Cl)c1NC(=O)/C=C/c1ccccc1
1020 s | CCC1CN(C(=O)Nc2ccccc2)c2ccccc2O1 (centres undefined)
840 s | Cn1c(=O)c(SCC(=O)NCCCc2ccccc2)nc2ccccc21
1020 s | COC(=O)c1sc2ccccc2c1NC(=O)c1cccc(OC)c1OC
575 s | CCC(=O)NCc1nc2c(n1C)CN(S(=O)(=O)c1ccc(F)c(C)c1)CC2
672 s | COc1ccc(-c2cc(N3CCN(C(=O)Nc4cc(OC)cc(OC)c4)CC3)ncn2)cc1
702 s | CNC(=O)[C@@H]1C[C@H](Oc2ccccc2)CN1S(=O)(=O)N(C)C
816 s | COc1ccc(Cl)cc1NC(=O)N(C)CC1CCOCC1
975 s | Cn1cc2c3c(cccc31)CN(C(=O)c1ccccc1Cl)CC2

SMILES | RP-LC retention time
O=C(C1CCN(c2cnc3nccnc3c2)CC1)N1CCC2(CC1)OCCO2 | 620 s
